Results on two compounds are retold here after publication PMC4988499, “Pinpointing a Mechanistic Switch Between Ketoreduction and “Ene” Reduction in Short‐Chain Dehydrogenases/Reductases” (Angewandte Chemie (Weinheim an Der Bergstrasse, Germany), 2016).

In test [1] the target is T1, IPR (isopiperitenone reductase) (Mentha x piperita, UniProt Q6WAU1).
T1 construct: recombinant; NADP+ scavenged from host cells; catalytic Glu238
Briefly: X-ray crystal structure. Format: binding.

For test [2], the target named is T2, MNMR ((−)‐menthone:(+)‐neomenthol reductase) (Mentha x piperita, UniProt Q06ZW2).
T2 construct: recombinant; catalytic Tyr244
T2 sequence (Q06ZW2 entry or part of it): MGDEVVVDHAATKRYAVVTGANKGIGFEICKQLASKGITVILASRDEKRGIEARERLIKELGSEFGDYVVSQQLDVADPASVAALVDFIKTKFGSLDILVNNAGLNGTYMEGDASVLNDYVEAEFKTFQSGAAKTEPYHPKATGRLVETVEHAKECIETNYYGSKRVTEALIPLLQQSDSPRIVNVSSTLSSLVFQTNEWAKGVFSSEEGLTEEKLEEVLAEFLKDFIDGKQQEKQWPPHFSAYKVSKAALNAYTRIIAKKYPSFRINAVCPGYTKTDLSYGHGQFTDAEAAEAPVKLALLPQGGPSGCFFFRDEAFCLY
The test can be described thus: X-ray crystal structure (soaking). The format is binding. As to conditions: coenzyme site.

T1 sequence (Q6WAU1 whole entry): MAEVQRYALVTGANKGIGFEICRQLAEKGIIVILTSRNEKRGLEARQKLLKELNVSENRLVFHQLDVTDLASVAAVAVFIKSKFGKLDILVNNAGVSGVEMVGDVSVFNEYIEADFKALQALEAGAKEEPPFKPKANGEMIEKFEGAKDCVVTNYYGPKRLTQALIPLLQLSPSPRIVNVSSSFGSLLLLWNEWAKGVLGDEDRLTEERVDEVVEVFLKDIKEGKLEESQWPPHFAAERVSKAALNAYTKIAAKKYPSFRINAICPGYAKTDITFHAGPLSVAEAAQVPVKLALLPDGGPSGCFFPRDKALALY

As for `CC1=C(C=O)C(C)(C)CCC1` [β‐cyclocitral], the X-ray crystal structure result in test [1] (active site, non-substrate, with NADP+) is “The IPR–β‐cyclocitral co‐crystal structure shows the ligand binds in a non‐active conformation”.

As to `NC(=O)c1ccc[n+]([C@@H]2O[C@H](COP(=O)(O)OP(=O)(O)OC[C@H]3O[C@@H](n4cnc5c(N)ncnc54)[C@H](OP(=O)(O)O)[C@@H]3O)[C@@H](O)[C@H]2O)c1` [NADP^+], the “X-ray crystal structure (soaking)” value in test [2] was “A coenzyme‐bound MNMR structure was obtained by soaking crystals with NADP^+”. Further, in test [1] (scavenged from expression host), the X-ray crystal structure entry is recorded as “clear density in the F0−Fc map for NADP^+”.
